From patent US9598459B2, “Pharmaceutical compositions and methods” (priority 2015, dated 2017)
Values after ≈ are worked out from the molar mass of the structure shown. Values joined by “and” are separate entries in the source; they are usually repeats but may differ in a detail not shown here. Identical values can stand only once. Like-named read-outs stand apart in the source and are kept apart here.

Columns and labels:
HIV-1 strain LAI = test: HIV-1 replication reverse transcriptase (RT) assay in PBMC; format: cell-based, human immunodeficiency virus type 1; conditions: for EC90: read-out: Anti-HIV-1LAI activity EC90; for activity versus HIV-1LAI: primary human PBMCs, words
HIV-1 LAV = test: Inhibition of inducible HIV-1 LAV replication in OM-10.1 (RT values); format: cell-based, human immunodeficiency virus type 1; conditions: for RT Values: SAMPLE 1-3, MEAN
[1] = tested on: West Nile virus Kern 515, WN02; test: West Nile virus antiviral screen in Vero 76; format: cell-based
CCRF-CEM = test: Cytotoxicity on CCRF-CEM; conditions: CCRF-CEM
OM-10.1 cells = test: Toxicity in OM-10.1 (Cell Titer 96); conditions: for TOXICITY VALUES (Cell Titer 96): SAMPLE 1-3, MEAN
MDCK = conditions: dog
[2] = target: cytosolic progesterone receptors (PR) (Homo sapiens, UniProt P06401); conditions: Peeters et al., 2008; cited from earlier work
[3] = rats, twice daily 4 mg kg−1 po; cited from earlier work
GR = GR (Mus musculus, UniProt P06537); conditions: cited from earlier work
[4] = cited from earlier work
in vitro [5] = conditions: African green monkey, Cytotoxicity CC50
in vitro [6] = test: in vitro
in vitro [7] = conditions: African green monkey
in vitro [8] = conditions: dog
Cytotoxicity on CCRF-CEM = conditions: human
[9] = Toxicity in RAW267.4 cells (neutral red); conditions: mouse, RAW267.4 cells, CC50, Neutral Red (Toxicity), Example 11
[10] = Cytotoxicity on primary human foreskin fibroblasts; conditions: human

GR, sequence (P06537 whole entry): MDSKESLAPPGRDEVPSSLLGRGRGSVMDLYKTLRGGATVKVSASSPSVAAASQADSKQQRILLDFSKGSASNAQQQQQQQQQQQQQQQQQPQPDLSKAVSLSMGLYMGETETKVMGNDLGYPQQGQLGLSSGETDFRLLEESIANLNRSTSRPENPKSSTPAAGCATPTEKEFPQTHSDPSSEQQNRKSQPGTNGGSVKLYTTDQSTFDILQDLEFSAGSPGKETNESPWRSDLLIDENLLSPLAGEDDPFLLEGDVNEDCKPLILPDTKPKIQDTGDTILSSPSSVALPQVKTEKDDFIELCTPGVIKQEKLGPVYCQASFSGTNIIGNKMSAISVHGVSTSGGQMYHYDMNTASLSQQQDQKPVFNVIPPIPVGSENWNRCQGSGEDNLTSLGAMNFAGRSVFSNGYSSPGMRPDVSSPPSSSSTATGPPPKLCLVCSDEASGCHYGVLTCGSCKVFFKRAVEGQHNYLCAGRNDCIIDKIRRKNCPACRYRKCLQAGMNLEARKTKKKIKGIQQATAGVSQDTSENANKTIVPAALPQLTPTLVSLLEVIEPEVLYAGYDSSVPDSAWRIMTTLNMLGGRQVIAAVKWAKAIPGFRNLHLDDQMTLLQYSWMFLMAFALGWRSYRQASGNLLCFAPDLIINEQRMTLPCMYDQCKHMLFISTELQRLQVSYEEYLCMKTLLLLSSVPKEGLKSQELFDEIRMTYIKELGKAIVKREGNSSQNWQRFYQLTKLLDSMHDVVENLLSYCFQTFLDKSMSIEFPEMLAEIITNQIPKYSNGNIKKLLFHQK
cytosolic progesterone receptors (PR), sequence (P06401 whole entry): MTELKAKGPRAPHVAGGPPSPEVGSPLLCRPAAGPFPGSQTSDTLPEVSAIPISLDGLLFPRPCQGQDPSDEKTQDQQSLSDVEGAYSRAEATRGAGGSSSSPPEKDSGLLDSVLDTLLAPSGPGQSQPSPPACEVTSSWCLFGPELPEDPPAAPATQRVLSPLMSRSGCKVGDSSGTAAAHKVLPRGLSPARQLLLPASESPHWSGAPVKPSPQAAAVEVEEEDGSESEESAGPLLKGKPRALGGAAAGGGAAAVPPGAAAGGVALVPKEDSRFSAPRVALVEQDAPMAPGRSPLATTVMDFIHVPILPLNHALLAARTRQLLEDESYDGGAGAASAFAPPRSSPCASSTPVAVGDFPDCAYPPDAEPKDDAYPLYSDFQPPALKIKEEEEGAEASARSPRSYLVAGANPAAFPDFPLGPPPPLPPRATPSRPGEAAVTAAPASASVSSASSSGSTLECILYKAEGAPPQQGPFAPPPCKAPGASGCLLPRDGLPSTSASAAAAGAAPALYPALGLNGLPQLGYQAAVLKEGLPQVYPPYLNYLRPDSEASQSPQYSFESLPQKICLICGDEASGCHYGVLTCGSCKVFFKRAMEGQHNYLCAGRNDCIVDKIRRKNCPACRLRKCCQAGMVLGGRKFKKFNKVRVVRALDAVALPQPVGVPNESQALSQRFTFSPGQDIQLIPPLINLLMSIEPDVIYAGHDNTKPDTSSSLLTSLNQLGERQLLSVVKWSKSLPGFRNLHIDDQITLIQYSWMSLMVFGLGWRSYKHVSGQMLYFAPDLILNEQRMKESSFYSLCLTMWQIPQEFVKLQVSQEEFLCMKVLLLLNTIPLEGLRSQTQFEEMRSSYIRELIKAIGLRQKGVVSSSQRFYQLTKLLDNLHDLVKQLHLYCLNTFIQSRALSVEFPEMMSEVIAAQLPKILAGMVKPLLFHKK

For `CC#CC1(O)CCC2C3CCC4=CC(=NNC(N)=S)CCC4=C3C(c3ccc4c(c3)OCO4)CC21C.CC#CC1(O)CCC2C3CCC4=CC(=O)CCC4=C3C(c3ccc4c(c3)OCO4)CC21C.CC(C)=O.CCO.O` (stereo not drawn) [PT155, ⅓ (11β,17β)-17-Hydroxy-11-[3,4-(methylenedioxy)phenyl]-17-(1-propyn-1-yl)estra-4,9-dien-3-one (ORG34517)×(2EZ)-2-{(11β,17β)-17-hydroxy-11-[3,4-(methylenedioxy)phenyl]-17-(1-propyn-1-yl)estra-4,9-dien-3-ylidene}hydrazinecarbothioamide [71.8% (E), 28.2% (Z)] hemihydrate×¾% acetone× ⅛ ethanol], the EC50 (HIV-1 strain LAI; LAI, PBMC, RT 3H-dTTP, read-out: EC50) was 5.5 µM, the EC50 (HIV-1 strain LAI; in PBMC, read-out: Anti-HIV-1LAI activity EC50) was 5.5 µM and the EC90 (HIV-1 strain LAI; in PBMC) was 16.2 µM. The “activity versus HIV-1LAI” value (HIV-1 strain LAI) was “active”, the “% VC” value (HIV-1 LAV; 0.01 μM) was 100.0% and the “RT Values” (HIV-1 LAV; 0.01 μM) was 32320 cpm and 29982 cpm and 29144 cpm. For the same compound, the “% VC” value (HIV-1 LAV; 0.03 μM) was 107.7%, the “RT Values” (HIV-1 LAV; 0.03 μM) was 33018 cpm and 33056 cpm and 32387 cpm and the “% VC” value (HIV-1 LAV; 0.10 μM) was 99.8%. For the same compound, the “RT Values” (HIV-1 LAV; 0.10 μM) was 29801 cpm and 29663 cpm and 31726 cpm, the “% VC” value (HIV-1 LAV; 1.00 μM) was 82.2% and the “RT Values” (HIV-1 LAV; 1.00 μM) was 23474 cpm and 26693 cpm and 24955 cpm. For the same compound, the “% VC” value (HIV-1 LAV; 3.16 μM) was 57.9%, the “RT Values” (HIV-1 LAV; 3.16 μM) was 16156 cpm and 21122 cpm and 15662 cpm and the “% VC” value (HIV-1 LAV; 10.0 μM) was 28.9%. For the same compound, the “RT Values” (HIV-1 LAV; 10.0 μM) was 8592 cpm and 7827 cpm and 10011 cpm, the “% VC” value (HIV-1 LAV; 31.6 μM) was 15.8% and the “RT Values” (HIV-1 LAV; 31.6 μM) was 4254 cpm and 4765 cpm and 5466 cpm. For the same compound, the “% VC” value (HIV-1 LAV; 100 μM) was 0.8%, the IC50 (HIV-1 LAV; OM-10.1) was 4.33 µM and the IC90 (HIV-1 LAV; OM-10.1) was 49.4 µM. The “IC 95%” value (HIV-1 LAV; OM-10.1) was 72.4 µM, the EC50 (HIV-1 LAV; OM-10.1, Table 7, read-out: EC50) was 4.33 µM and the EC90 (HIV-1 LAV; OM-10.1, Table 7, read-out: EC90) was 49.4 µM. It also gave an EC50 ([1]; Neutral Red) greater than 55 µg/mL, an EC50 ([1]; Visual (Cytopathic effect/Toxicity), unit from Conc. Range) greater than 22 µg/mL and a CC50 (PBMC) of 82.6 µM. It also gave a CC50 (HuH-7) of 39.7 µM, a CC50 (Vero 76) of 45.4 µM and a CC50 (MA-104) of 17 µM. For the same compound, the CC50 (CCRF-CEM; Cytotoxicity control, CellTiter MTS) was 7.1 µM, the CC50 (CCRF-CEM; read-out: Cytotoxicity CC50) was 7.1 µM and the “% CC” value (OM-10.1 cells; 0.01 μM) was 93.9%. For the same compound, the “TOXICITY VALUES (Cell Titer 96)” value (OM-10.1 cells; 0.01 μM) was 0.707 O.D. @ 490/650 nm and 0.669 O.D. @ 490/650 nm and 0.567 O.D. @ 490/650 nm, the “% CC” value (OM-10.1 cells; 0.03 μM) was 105.6% and the “TOXICITY VALUES (Cell Titer 96)” value (OM-10.1 cells; 0.03 μM) was 0.749 O.D. @ 490/650 nm and 0.794 O.D. @ 490/650 nm and 0.642 O.D. @ 490/650 nm. For the same compound, the “% CC” value (OM-10.1 cells; 0.10 μM) was 110.0%, the “TOXICITY VALUES (Cell Titer 96)” value (OM-10.1 cells; 0.10 μM) was 0.867 O.D. @ 490/650 nm and 0.820 O.D. @ 490/650 nm and 0.590 O.D. @ 490/650 nm and the “% CC” value (OM-10.1 cells; 1.00 μM) was 119.25%. For the same compound, the “TOXICITY VALUES (Cell Titer 96)” value (OM-10.1 cells; 1.00 μM) was 0.937 O.D. @ 490/650 nm and 0.911 O.D. @ 490/650 nm and 0.618 O.D. @ 490/650 nm, the “% CC” value (OM-10.1 cells; 3.16 μM) was 109.6% and the “TOXICITY VALUES (Cell Titer 96)” value (OM-10.1 cells; 3.16 μM) was 0.896 O.D. @ 490/650 nm and 0.800 O.D. @ 490/650 nm and 0.572 O.D. @ 490/650 nm. For the same compound, the “% CC” value (OM-10.1 cells; 10.0 μM) was 105.7%, the “TOXICITY VALUES (Cell Titer 96)” value (OM-10.1 cells; 10.0 μM) was 0.828 O.D. @ 490/650 nm and 0.761 O.D. @ 490/650 nm and 0.599 O.D. @ 490/650 nm and the “% CC” value (OM-10.1 cells; 31.6 μM) was 93.4%. The “TOXICITY VALUES (Cell Titer 96)” value (OM-10.1 cells; 31.6 μM) was 0.714 O.D. @ 490/650 nm and 0.682 O.D. @ 490/650 nm and 0.536 O.D. @ 490/650 nm, the “% CC” value (OM-10.1 cells; 100 μM) was 112.5% and the “TOXICITY VALUES (Cell Titer 96)” value (OM-10.1 cells; 100 μM) was 0.777 O.D. @ 490/650 nm and 0.775 O.D. @ 490/650 nm. For the same compound, the “TC 90%” value (OM-10.1 cells; OM-10.1) was greater than 100 µM, the “TC 95%” value (OM-10.1 cells; OM-10.1) was greater than 100 µM and the CC50 (OM-10.1 cells; OM-10.1, Table 7) was greater than 100 µM. It also gave a CC50 (OM-10.1 cells; read-out: TC 50%, OM-10.1) greater than 100 µM.
Work on `CC#C[C@]1(O)CC[C@H]2[C@@H]3CCC4=CC(=O)CCC4=C3[C@@H](c3ccc4c(c3)OCO4)C[C@@]21C` [PT150, (11β,17β)-11-(1,3-benzodioxol-5-yl)-17-hydroxy-17-(1-propynyl)-estra-4,9-dien-3-one] yielded an EC50 (HIV-1 strain LAI; Human immunodeficiency virus 1, PBMC, LAI, PBMC, RT 3H-dTTP, read-out: EC50) of 8.9 µM, an EC50 (HIV-1 strain LAI; Human immunodeficiency virus 1, PBMC, in PBMC, read-out: Anti-HIV-1LAI activity EC50) of 8.9 µM and an EC90 (HIV-1 strain LAI; Human immunodeficiency virus 1, in PBMC) of 21.6 µM. For the same compound, the “activity versus HIV-1LAI” value (HIV-1 strain LAI) was “active”, the CC50 (MDCK) was 37 µg/mL (≈ 85.9 µM) and the “value for the cytosolic progesterone receptors (PR)” value [2] was 6.4%. The embryos lost [3] was roughly 100%, the “block of corticosterone-induced GR translocation” value (GR) was “able to block corticosterone-induced GR translocation” and the “adverse indications of cell toxicity” value ([4]; Phase II, patients, 900 mg per day for 2 weeks) was “no noted adverse indications of cell toxicity”. For the same compound, the “significant toxicities and side effects” value ([4]; phase I and phase II clinical trials) was “none were identified”, the CC50 (in vitro [5]) was 44.3 µM and the CC50 (in vitro [6]; CC50) was greater than 100 µM. For the same compound, the CC50 (in vitro [6]; human, CC50) was 7.4 µM and 3.3 µg/mL, the CC50 (in vitro [6]; human, Cytotoxicity 50% CC50) was 7.4 µM and the CC50 (in vitro [7]) was 10.9 µM. For the same compound, the CC50 (in vitro [8]; CC50) was 29 µg/mL, the CC50 (in vitro [8]; Cytotoxicity 50% CC50) was 17 µM and the CC50 (Cytotoxicity on CCRF-CEM; CCRF-CEM cells (T-lymphoblastic acute T cell leukemia), Cytotoxicity CC50, CCRF-CEM) was 15.4 µM. For the same compound, the CC50 (Cytotoxicity on CCRF-CEM; CCRF-CEM cells, CC50, Cytotoxicity control, CCRF-CEM, CellTiter MTS) was 15.4 µM, the CC50 [9] was 33 µM and the CC50 ([10]; primary HFF-1 human foreskin fibroblasts, CC50) was greater than 150 µM. It also gave a CC50 ([10]; primary HFF-1 human foreskin fibroblasts, CC50, Cytotoxicity control, Primary HFF-1, CellTiter-Glo) greater than 150 µM, a CC50 ([10]; primary human foreskin fibroblasts (HFF / HFF-1), CC50, HFF / HFF-1 primary cells) greater than 150 µM and a CC50 ([10]; primary human foreskin fibroblasts (HFF-1), CC50, Herpes simplex virus type 1 screen, Primary HFF-1, CellTiter-Glo) greater than 150 µM.
